Measured values: ChEMBL document CHEMBL4364312, “Design, synthesis and biological evaluation of hydroxypyridinone-coumarin hybrids as multimodal monoamine oxidase B inhibitors and iron chelates against Alzheimer's disease” (Eur J Med Chem, 2019)

Columns and labels:
[1] = molecular target: T1, Amine oxidase [flavin-containing] B (Homo sapiens, UniProt P27338); conditions: 0.25 h, read-out: INH
T1 sequence (P27338 whole entry): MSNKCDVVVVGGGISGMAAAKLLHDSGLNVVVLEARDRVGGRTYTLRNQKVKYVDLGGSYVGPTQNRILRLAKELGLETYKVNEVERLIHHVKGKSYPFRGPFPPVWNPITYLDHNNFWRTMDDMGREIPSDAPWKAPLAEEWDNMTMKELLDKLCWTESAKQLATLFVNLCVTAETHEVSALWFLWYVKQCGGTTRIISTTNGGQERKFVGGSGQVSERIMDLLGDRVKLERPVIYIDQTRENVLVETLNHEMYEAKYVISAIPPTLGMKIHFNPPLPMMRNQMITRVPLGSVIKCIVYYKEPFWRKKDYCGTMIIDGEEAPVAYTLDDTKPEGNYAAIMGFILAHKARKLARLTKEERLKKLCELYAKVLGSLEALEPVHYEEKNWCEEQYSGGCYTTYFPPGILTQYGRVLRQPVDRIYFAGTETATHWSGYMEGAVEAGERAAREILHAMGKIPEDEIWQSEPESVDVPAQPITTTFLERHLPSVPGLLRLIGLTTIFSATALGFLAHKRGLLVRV
Description: Inhibition of recombinant human MAO-B expressed in baculovirus infected BTI insect cells at 10 uM incubated for 15 mins with substrate p-Tyramine by fluorescence assay relative to control

[2] = molecular target: T1, Amine oxidase [flavin-containing] B; assay: biochemical
Description: Inhibition of recombinant human MAO-B expressed in baculovirus infected BTI insect cells incubated for 15 mins with substrate p-Tyramine by fluorescence assay

physchem [3] = conditions: DMSO:KCl
Description: Dissociation constant, pKa1 of compound for protonation of the 4-oxo group in DMSO:KCl at 30 uM/L incubated for 1 min by UV-Vis spectrophotometry

physchem [4] = conditions: DMSO:KCl; remark: listed apart in the source
Description: Dissociation constant, pKa2 of compound for 3-(or 5-) hydroxyl group in DMSO:KCl at 30 uM/L incubated for 1 min by UV-Vis spectrophotometry

Mus musculus [5] = assay: (§1) Cognition enhancement in scopolamine-induced impairment in ICR mouse assessed as distance to target at 10 mg/kg, ip administered once daily for 2 weeks pretreated with scopolamine for 30 mins and measured at 5th day of training session by Morris water maze test (reference value: 10.4 +/- 1.2 meter); format: functional
Mus musculus [6] = assay: as §1, with “number of times” for “distance”, “to enter” for “to”, “target quadrant” for “target”, “9.0” for “10.4”, “0.8)” for “1.2 meter)”; format: functional
Mus musculus [7] = assay: Cognition enhancement in scopolamine-induced impairment in ICR mouse assessed as latency time at 10 mg/kg, ip administered once daily for 2 weeks pretreated with scopolamine for 30 mins and measured at 5th day of training session by Morris water maze test (reference value: 40.2 +/- 10.5 sec); format: functional
U-251 [8] = assay: Cytoprotective against H2O2-induced cell death in human U251 cells assessed as increase in cell viability at 100 uM preincubated for 24 hrs followed by H2O2 induction and measured after 1 hr by MTS assay (reference value: 50%); format: functional
[9] = Binding affinity to Fe3+ assessed as equilibrium binding constant logK3 in KCl pH 2 to 10.5 at […] 30 uM by UV-Vis spectrophotometric method
[10] = Binding affinity to Fe3+ assessed as equilibrium binding constant logK2 in KCl pH 2 to 10.5 at 30 uM incubated for 20 mins by UV-Vis spectrophotometric method
U-251 [11] = assay: Cytotoxicity against human U251 cells assessed as reduction in cell viability at 0.01 to 100 uM incubated for 24 hrs by MTS assay; format: cell-based; conditions: u-251, 24 h

Row | SMILES | inhibition at 10 µM [1] [%] | IC50 [2] [nM] | pKa at 1 min, 30 µM (physchem [3]) | pKa at 1 min, 30 µM (physchem [4]) | other results
1 | CCc1c(O)c(=O)ccn1Cc1cc2ccc(OCc3ccc(F)cc3)cc2oc1=O | 91.6 | 163 | 3.15 | 9.62 | 
2 | Cc1cc(=O)c(O)cn1Cc1cc2ccc(OCc3ccc(F)cc3)cc2oc1=O | 87.6 | 145 | 3.26 | 8.87 | 
3 | COc1ccc2cc(Cn3cc(O)c(=O)cc3C)c(=O)oc2c1 | 38.3 |  | 3.15 | 9 | 
4 | Cc1cc(=O)c(O)cn1Cc1cc2ccc(OCc3cccc(F)c3)cc2oc1=O | 85.8 | 193 | 3.15 | 8.99 | 
5 | COc1ccc2cc(Cn3ccc(=O)c(O)c3C)c(=O)oc2c1 | 94.4 | 91.9 | 3.13 | 9.66 | 
6 | CCc1c(O)c(=O)ccn1Cc1cc2ccc(OC)cc2oc1=O | 50.7 |  | 3.09 | 9.7 | 
7 | CCc1c(O)c(=O)ccn1Cc1cc2ccc(OCc3cccc(F)c3)cc2oc1=O | 91.9 | 265 | 3.12 | 9.69 | 
8 | Cc1cc(=O)c(O)cn1Cc1cc2ccc(OCc3ccccc3)cc2oc1=O | 86.5 | 290 | 3.12 | 9.03 | 
9 | Cc1c(O)c(=O)ccn1Cc1cc2ccc(OCc3cc(F)cc(F)c3)cc2oc1=O | 67.5 |  | 3.1 | 9.54 | 
10 | C#CCN(C)Cc1ccccc1 [PARGYLINE] |  |  |  |  | Activity (Mus musculus [5]): 6.6 m; Activity (Mus musculus [6]): 16.3; Time (Mus musculus [7]): 5.6 s; Activity (U-251 [8]): 61.5%
11 | O=C1O[C@H]([C@@H](O)CO)C(O)=C1O [ASCORBIC ACID] |  |  |  |  | Activity (U-251 [8]): 57.6%
12 | CCc1c(O)c(=O)ccn1Cc1cc2ccc(OCc3ccccc3)cc2oc1=O | 91.9 | 129 | 3.11 | 9.71 | 
13 | Cc1c(O)c(=O)ccn1Cc1cc2ccc(OCc3ccccc3)cc2oc1=O | 89.6 | 336 | 3.11 | 9.61 | 
14 | C#CCOc1ccc2cc(Cn3ccc(=O)c(O)c3C)c(=O)oc2c1 | 47.1 |  | 3.11 | 9.58 | 
15 | CCc1c(O)c(=O)ccn1Cc1cc2ccc(OCc3cc(F)cc(F)c3)cc2oc1=O | 91.7 | 223 | 3.08 | 9.7 | 
16 | Cc1cc(=O)c(O)cn1Cc1cc2ccc(OCc3cc(F)cc(F)c3)cc2oc1=O | 68.1 |  | 3.11 | 8.95 | 
17 | CCc1c(O)c(=O)ccn1Cc1cc2ccccc2oc1=O | 25 |  | 3.03 | 9.7 | 
18 | Cc1c(O)c(=O)ccn1C [DEFERIPRONE] |  |  | 3.65 | 9.89 | logKb [9]: 37.3; logKb [10]: 27.7
19 | Cc1c(O)c(=O)ccn1Cc1cc2ccc(OCc3cccc(Cl)c3)cc2oc1=O | 21.2 |  | 3.17 | 9.67 | 
20 | Cc1c(O)c(=O)ccn1Cc1cc2ccc(OCc3cccc(F)c3)cc2oc1=O | 81.3 | 14.7 | 3.1 | 9.65 | Activity (Mus musculus [5]): 4.2 m; Activity (Mus musculus [6]): 16.6; Time (Mus musculus [7]): 9.6 s; Activity (U-251 [8]): 57.8%; Activity (U-251 [11]): Non-Toxic
21 | CCc1c(O)c(=O)ccn1Cc1cc2ccc(OCc3cccc(Cl)c3)cc2oc1=O | 92.5 | 425 | 3.1 | 9.76 | 
22 | Cc1cc(=O)c(O)cn1Cc1cc2ccccc2oc1=O | 6.8 |  | 3.14 | 8.97 | 
23 | Cc1c(O)c(=O)ccn1Cc1cc2ccccc2oc1=O | 22.4 |  | 3.07 | 9.68 | 
24 | Cc1cc(=O)c(O)cn1Cc1cc2ccc(OCc3cccc(Cl)c3)cc2oc1=O | 82 | 126 | 3.16 | 9.07 | 
25 | C#CCOc1ccc2cc(Cn3ccc(=O)c(O)c3CC)c(=O)oc2c1 | 78.1 | 121 | 2.95 | 9.63 | 
26 | C#CCOc1ccc2cc(Cn3cc(O)c(=O)cc3C)c(=O)oc2c1 | 50.6 |  | 3.07 | 8.94 | 
